For this test, the target named is influenza PAN endonuclease (Influenza A virus, UniProt C3W5S0, DEL52-64/INS51G). In kind it is biochemical, influenza A/California/04/2009(H1N1).
As for `NC(=O)c1[nH]c(Br)cc(=O)c1O` [Compound 3], the “inhibition of PAN (in words)” value is given as “little difference in activity when compared with compounds 1 or 2”.

As to `O=c1cc(Br)[nH]c(-c2nnn[nH]2)c1O` [Compound 4], the “inhibition of PAN (in words)” value is listed as “activity comparable to that of the parent structure”.

As to `CONC(=O)c1[nH]c(Br)cc(=O)c1O` [Compound 5], the “inhibition of PAN (in words)” value is given as “moderate inhibition”.

As to `O=c1[nH]c(-c2[nH]c(Br)cc(=O)c2O)no1` [Compound 7], the “inhibition of PAN (in words)” value is listed as “most potent IC50 value of the evaluated compounds”.

In the case of `Cc1nc(-c2[nH]c(Br)cc(=O)c2O)no1` [Compound 8], the “inhibition of PAN (in words)” value is recorded as “good inhibition”.

With `N#Cc1[nH]c(Br)cc(=O)c1O` [Compound 9], the “inhibition of PAN (in words)” value is listed as “relatively poor inhibition”.

In the case of `O=c1cc(Br)[nH]c(C2=NCCN2)c1O` [Compound 10], the “inhibition of PAN (in words)” value is “markedly poorer inhibition than the parent MBI”.

Consider `O=c1cc(Br)[nH]c(C2=NCCO2)c1O` [Compound 11], for which the “inhibition of PAN (in words)” value was “markedly poorer inhibition than the parent MBI”.

(Values after paper PMC9841593 (ACS Medicinal Chemistry Letters, 2022).)
